Results on seven molecules are retold here after article PMC8512853, “Synthesis, Bioactivity, Pharmacokinetic and Biomimetic Properties of Multi-Substituted Coumarin Derivatives” (Molecules, 2021).

Series [1] in a line: ABTS radical scavenging assay. To be noted: 6 min. The procedure: The ABTS radical cation scavenging assay is a decolorization assay frequently used as an antioxidant activity estimation protocol. […] The absorbance is measured at 734 nm and the antioxidant capacity is compared to a standard antioxidant solution, such as ascorbic acid.
For the evaluation of antioxidant activity, the scavenging capacities of all samples were measured via the ABTS assay, as previously described by Kontogiorgis et al. with some modifications. Briefly, an ethanolic standard ABTS solution (7 mM) was prepared by the addition of ABTS salt and potassium persulfate. […] Each sample was diluted in DMSO and tested in triplicate. The tested mixture contained 10–20 µL of sample and 990–980 µL of the ABTS solution, for a total volume of 1 ml. Blank samples contained equal amounts of DMSO instead of the coumarin analogues, and ascorbic acid was used as a reference sample for the final evaluation of the ABTS scavenging capacity. All mixtures were stored at room temperature to allow decolorization and measured after 6 min. The percentage reduction of the ABTS radical was evaluated according to the following Equation (3):(3) % Reduction=Control OD (mean)−Sample OD (mean)/Control OD (mean)×100

The target of series [2] is T1, human serum albumin (HSA) (Homo sapiens, UniProt P02768).
T1 construct: purchased CHIRAL PAK
T1 sequence (P02768 25-609): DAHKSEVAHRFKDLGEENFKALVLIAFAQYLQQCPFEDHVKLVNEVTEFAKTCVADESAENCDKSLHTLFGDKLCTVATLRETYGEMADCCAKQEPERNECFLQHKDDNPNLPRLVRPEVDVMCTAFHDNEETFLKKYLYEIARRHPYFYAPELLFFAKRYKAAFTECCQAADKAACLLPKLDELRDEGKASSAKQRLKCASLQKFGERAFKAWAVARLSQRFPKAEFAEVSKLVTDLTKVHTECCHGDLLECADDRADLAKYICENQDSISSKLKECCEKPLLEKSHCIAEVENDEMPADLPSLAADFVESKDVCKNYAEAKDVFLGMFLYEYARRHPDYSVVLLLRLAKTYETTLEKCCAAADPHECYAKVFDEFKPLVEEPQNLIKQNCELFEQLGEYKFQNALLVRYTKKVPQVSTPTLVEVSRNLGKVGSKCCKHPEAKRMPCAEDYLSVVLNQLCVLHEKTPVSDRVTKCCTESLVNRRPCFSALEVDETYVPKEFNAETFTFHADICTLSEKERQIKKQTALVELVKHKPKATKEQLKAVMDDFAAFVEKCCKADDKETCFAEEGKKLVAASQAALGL
The series is described as follows: HSA chromatography and estimated plasma protein binding. It is filed as in vitro ADME. To be noted: for fraction unbound: human, immobilized human serum albumin (HSA) column, Equation (2) from logk10, pH 7.00, read-out: %PPB estimated plasma protein binding (converted); for logk10 (HSA retention factor): pH 7.00, 10% acetonitrile. The procedure: The novel coumarin derivatives were also studied using the immobilized protein column HSA. An HSA chromatographic column provides estimates on the binding affinities of chemicals to human serum albumin, which is the most abundant plasma protein and is related to drug efficacy, drug—drug pharmacokinetic interactions, and drug safety. HSA binding can be considered to represent almost the total plasma protein binding of a drug.
Retention factors on the HSA stationary phase were measured using as eluent PBS at pH = 7.00 and a flow rate of 1 mL/min in the presence of 10% acetonitrile.
(2) % PPB=101∗10^logk10/1+10^logk10
The physicochemical and biomimetic properties of the new coumarin analogues were studied using liquid chromatography (HPLC) in 220–230 nm Two types of chromatographic columns were used: (i) immobilized artificial membrane (IAM) ([…].PC.DD.2, Regis Technologies) column and (ii) human serum albumin (HSA) (CHIRAL PAK) column.
The training set consisted of 25 neutral and slightly acidic compounds. Their IAM retention factors were measured at pH 7.40 on a IAM.PC.DD.2 column. The mobile phase consisted of acetonitrile solvent (CH3CN) in various concentrations (10%, 15%, 20%, 25%, 30%) and a flow rate of 3 mL/min was selected. Their HSA retention factors were measured at pH 7.00 on HSA column. The mobile phase consisted of acetonitrile solvent (CH3CN) in 10% concentration and a flow rate of 1 mL/min was selected.
The different pH values (7.00 for HSA and 7.40 for IAM) were measured with an electronic pH meter MP125 and were achieved by preparing suitable buffers of phosphates and chlorides (0.12 g KH2PO4, 0.72 g Na2HPO4·2H2O, 4.00 g NaCl and 0.10 g KCl). Sodium citrate solution was used to determine the dead time, which was deducted from the results at the end of measurements. The elution time of each coumarin analogue was measured at least three times. Retention times were converted into logk values, which represent the logarithm of the retention indexes, using Equation (8). (8) logk=log(tr−t0/t0) where tr is the retention time of the coumarin derivative and t0 is the dead time.

Series [3] in a line: MTT cell viability assay, HaCaT. The class given is cell-based, human. To be noted: human, HaCaT cells, 100 μΜ, 24 h. The source says: The MTT assay (3- [4,5-dimethylthiazol-2-yl] -2,5 diphenyl tetrazole) is based on the conversion of MTT to formazan crystals by living cells, which determines mitochondrial activity. Since for most cell populations total mitochondrial activity is related to the number of viable cells, this assay is widely used to measure the in vitro cytotoxic effects of drugs on various cell lines or primary cells. The principle of the MTT assay is that for most viable cells the mitochondrial activity is stable, and therefore, an increase or decrease in the number of viable cells is linearly related to mitochondrial activity. The mitochondrial activity of the cells is reflected by the conversion of the MTT tetrazole salt to formazan crystals (bright purple), which can be solubilized (in this protocol with DMSO) for homogeneous measurement. Thus, any increase or decrease in the number of viable cells can be detected by measuring the formazan concentration reflected in the optical density (OD) measurement at 540 nm with a reference absorption of 720 nm.
All the compounds were tested for their cytotoxic activity against blank and control samples in the human epidermal keratinocyte line (HaCaT), at the concentration of 100 μΜ, and the results are presented in Table 4.
This protocol was used for the evaluation of cell viability and all the cell lines. It must be noted that this assay describes the count of cells that remain alive after the treatment. For the experimental procedure a standard solution of MTT 1mg/mL in PBS was prepared which after filtration ([…] filter (Millipore, Carrigtwohill, Ireland)) was stored in the dark (4–8 °C) until use. In a 96-well plate, HaCaT, A549 and A375 cells were seeded in a number of 30 × 10^4 cells/well for each evaluation series respectively. The cells were incubated (37 °C, 5% CO2) for 24 h, followed by the addition of the tested analogues (100 μM, diluted in DMEM) and another 24-h incubation. Next, appropriate amount of MTT was added in the tested wells and the plate returned to the incubator for the next 4 h for the formation of the formazan crystals. The formazan crystals were then redissolved by adding DMSO (100 μL) and stirring lightly for 40 min, after which the absorbance was measured in a plate reader at 540 nm with a reference absorbance of 720 nm.
All samples were tested in triplicate, against a control (only cells), blank (no cells), and positive control (100 μM standard silibinin solution was used as a “cell-killing” standard).

As for `Cc1c(-c2ccc(Cl)cc2)c(=O)oc2cccc(O)c12` [Compound 4c, 3-(4-chlorophenyl)-5-hydroxy-4-methyl-chromen-2-one], the “ABTS^•+ % (100 μΜ)” value in series [1] came out at 65.2%. In series [2], the fraction unbound is 0.152 and the “logk10 (HSA retention factor)” value is 0.72. The molecule also displayed a viability at 24 h, 100 μM in series [3] of 63.7%.
In the same order, the values of `CC(=O)Oc1ccc(-c2c(C)c3ccccc3oc2=O)cc1` [Compound 3h, 3-(4-acetyloxyphenyl)-4-methyl-chromen-2-one] are “no”, 0.145, 0.74 and 96.2%.
In the same order, the values of `Cc1c(-c2cccc(Cl)c2)c(=O)oc2cccc(O)c12` [Compound 4b, 3-(3-chlorophenyl)-5-hydroxy-4-methyl-chromen-2-one] are 49.2%, 0.201, 0.58 and 100%.
With `CC(=O)Oc1cccc2oc(=O)c(-c3cccc(Br)c3)c(C)c12` [Compound 3g, 5-acetyloxy-3-(3-bromophenyl)-4-methyl-chromen-2-one], the “ABTS^•+ % (100 μΜ)” value in series [1] worked out at 2.8%. In addition, in series [2], the fraction unbound is 0.12 and the “logk10 (HSA retention factor)” value was 0.83. The same molecule gave a viability at 24 h, 100 μM in series [3] of 100%.
On to `Cc1c(-c2ccc(O)cc2)c(=O)oc2ccccc12` [Compound 4h, 3-(4-hydroxyphenyl)-4-methyl-chromen-2-one], for which, in series [1], the “ABTS^•+ % (100 μΜ)” value was determined as 8.6%. Moreover, in series [2], the fraction unbound is 0.03 and the “logk10 (HSA retention factor)” value was 1.38. The molecule also registered a viability at 24 h, 100 μM in series [3] of 100%.
In the same order, the values of `Cc1c(-c2ccccc2F)c(=O)oc2cccc(O)c12` [Compound 4d, 3-(2-fluorophenyl)-5-hydroxy-4-methyl-chromen-2-one] are 73.3%, 0.152, 0.72 and 100%.
In the same order, the values of `CC(=O)Oc1cccc2oc(=O)c(-c3cccc(F)c3)c(C)c12` [Compound 3e, 5-acetyloxy-3-(3-fluorophenyl)-4-methyl-chromen-2-one] are 2.0%, 0.149, 0.73 and 96.5%.
